PubChem BioAssay (NCI)
“And” between values parts separate entries of the source, which are not always exact repeats. Equal entries are not always repeated.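 Growth conditions: 96-well plates. Treatment: test compound, 48 hours, 5 concentrations. Analysis: linear interpolation between bracketing concentrations; unreached endpoints set to highest concentration. Here, GI50 denotes the concentration required for 50% inhibition of growth. TGI: total growth inhibition.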

How the values were obtained:
Test in all cases: inhibition of tumour cell growth, NCI panel, 48 h
LOX IMVI melanoma = tested on: LOX IMVI melanoma
TK-10 renal = tested on: TK-10 renal
EKVX NSCLC = tested on: EKVX NSCLC
UACC-62 melanoma = tested on: UACC-62 melanoma
SF-539 CNS = tested on: SF-539 CNS
NCI-H23 lung = tested on: NCI-H23 lung
HL-60(TB) leukemia = tested on: HL-60(TB) leukemia
OVCAR-8 ovarian = tested on: OVCAR-8 ovarian
RPMI-8226 leukemia = tested on: RPMI-8226 leukemia
MALME-3M melanoma = tested on: MALME-3M melanoma

| Compound | TGI (LOX IMVI melanoma) | TGI (TK-10 renal) | TGI (EKVX NSCLC) | TGI (UACC-62 melanoma) | TGI (SF-539 CNS) | TGI (NCI-H23 lung) | TGI (HL-60(TB) leukemia) | TGI (OVCAR-8 ovarian) | TGI (RPMI-8226 leukemia) | TGI (MALME-3M melanoma) | GI50 (MALME-3M melanoma) | GI50 (EKVX NSCLC) | GI50 (UACC-62 melanoma) | GI50 (RPMI-8226 leukemia) | GI50 (OVCAR-8 ovarian) |
| --- | --- | --- | --- | --- | --- | --- | --- | --- | --- | --- | --- | --- | --- | --- | --- |
| CCOc1ccc(/C=C2\NC(=S)N(/C=C3\C(=O)Oc4ccccc4C3=O)C2=O)cc1 | 87.5 µM | 49.6 µM | 70 µM | 37.9 µM | 36.5 µM | 80.8 µM | 33.7 µM | 36.7 µM |  |  |  |  |  |  |  |
| c1csc(-c2ccsc2-c2ccsc2)c1 | > 100 µM | > 100 µM | > 100 µM | > 100 µM | > 100 µM | > 100 µM | > 100 µM | > 100 µM | > 100 µM |  |  |  |  |  |  |
| COc1ccc2[nH]c(C(=O)N3CC(CCl)c4c3cc(N)c3ccccc43)cc2c1 (configuration not stated) | 0.0223 µM | 11.4 µM | 0.128 µM | < 0.0116 µM |  | < 0.0109 µM | < 0.01 µM | < 0.0177 µM | 0.138 µM |  |  |  |  |  |  |
| CCOC(=O)C(NC(=O)CC)(Nc1ccc(F)c(Cl)c1)C(F)(F)F (configuration not stated) | > 100 µM | > 100 µM | > 100 µM | > 100 µM | > 100 µM |  | > 100 µM | > 100 µM | > 100 µM | > 100 µM |  |  |  |  |  |
| N[C@H](CCC(=O)NCP(=O)(O)O)C(=O)O |  | 25.6 µM | > 100 µM | > 100 µM | > 100 µM | > 100 µM | > 100 µM | > 100 µM | > 100 µM | > 100 µM |  |  |  |  |  |
| CC(=O)NC1(C(=O)N[C@@H](Cc2ccccc2)C(=O)NC2CCCCC2)Cc2ccc3ccccc3c2-c2c(ccc3ccccc23)C1 | > 100 µM |  | > 100 µM | > 100 µM |  |  | 26.2 µM and 27.4 µM | > 100 µM | > 100 µM | > 100 µM | 5 µM and 19.4 µM | 4.45 µM and 18.4 µM | 6.22 µM and 12.7 µM | 3.31 µM and 13.9 µM | 8.67 µM and 33.2 µM |
| COC(=O)c1ccccc1C1=C([N+](=O)[O-])C(c2ccccc2)C(C#N)=C(N)O1 (configuration not stated) | > 100 µM | > 100 µM | > 100 µM | > 100 µM | > 100 µM | > 100 µM | > 100 µM | > 100 µM | > 100 µM |  |  |  |  |  |  |
| COc1ccc([C@]23CCN4COC[C@@H]([C@H]42)C2(CC3)OCC(C)(C)CO2)cc1OC | > 100 µM | > 100 µM | > 100 µM | > 100 µM |  | > 100 µM | > 100 µM | > 100 µM | > 100 µM | > 100 µM |  |  |  |  |  |
| CN[C@@H](C)[C@@H](O)c1ccccc1 | > 100 µM | > 100 µM | > 100 µM |  | > 100 µM | > 100 µM | > 100 µM | > 100 µM | > 100 µM | > 100 µM |  |  |  |  |  |
| O=C(O)CCc1ccc2c(c1)CC1(Cc3ccccc3C1)C2 | > 100 µM | > 100 µM | > 100 µM | > 100 µM | > 100 µM | > 100 µM |  | > 100 µM | > 100 µM | > 100 µM |  |  |  |  |  |
| NC(=Nc1ccccc1)c1ccccc1N | > 100 µM | > 100 µM | > 100 µM | > 100 µM |  | > 100 µM | > 100 µM | > 100 µM | > 100 µM |  |  |  |  |  |  |
| Nc1ccc2ccc(-c3ccc[nH]3)nc2n1 | > 100 µM | > 100 µM | > 100 µM |  | > 100 µM | > 100 µM |  | > 100 µM | > 100 µM | > 100 µM |  |  |  |  |  |
| N=c1oc2ccccc2cc1-c1nc2ccccc2c(=O)[nH]1 | > 100 µM | > 100 µM | > 100 µM | > 100 µM | > 100 µM |  | > 100 µM | > 100 µM | > 100 µM | > 100 µM |  |  |  |  |  |
| O=[N+]([O-])c1ccc(N2N=C(c3ccc4ccccc4c3O)CC2c2ccc(Cl)cc2)c([N+](=O)[O-])c1 (configuration not stated) |  | > 100 µM |  | > 100 µM | > 100 µM | > 100 µM |  | > 100 µM | 63.2 µM | > 100 µM |  |  |  |  |  |
| COc1cc(CCN(C)C)cc(OC)c1OC | > 100 µM | > 100 µM | > 100 µM | > 100 µM | > 100 µM | > 100 µM | > 100 µM | > 100 µM | > 100 µM |  |  |  |  |  |  |
| CCCN(CCC)C1CCc2c(ccc3cc[nH]c23)C1 (configuration not stated) |  | > 100 µM | > 100 µM | > 100 µM | > 100 µM | > 100 µM |  | > 100 µM | > 100 µM | > 100 µM |  |  |  |  |  |
| O=[N+]([O-])c1ccc(O)c(/C=N/c2nc(-c3ccccc3)cs2)c1 | 38.7 µM | > 75.4 µM | > 100 µM | 30.8 µM |  | 49.6 µM | > 100 µM | 68.4 µM | 30.9 µM | 74.6 µM |  |  |  |  |  |
| CC(=O)OCCCCn1cc(Cn2ccc(=O)n(Cc3cn(CCCCOC(C)=O)nn3)c2=O)nn1 | > 100 µM | > 100 µM | > 100 µM | > 100 µM | > 100 µM | > 100 µM |  | > 100 µM | > 100 µM | > 100 µM |  |  |  |  |  |
| COc1c(C)c(C/C=C(\C)CC/C=C(\C)CC/C=C(\C)CCC=C(C)C)c(OC)c2ccccc12 | > 100 µM | > 100 µM | > 100 µM | > 100 µM | > 100 µM | > 100 µM |  | > 100 µM |  |  |  |  |  |  |  |
| O=C1/C(=C/c2ccccc2)NC(=S)N1CN1CCCCC1 | > 100 µM |  | > 100 µM | > 100 µM |  | > 100 µM |  | > 100 µM | > 100 µM |  |  |  |  |  |  |
| O=C(c1ccc(O)c([N+](=O)[O-])c1)c1ccc(O)c([N+](=O)[O-])c1 | > 100 µM | > 100 µM | > 100 µM | > 100 µM | > 100 µM | > 100 µM |  | > 100 µM | > 100 µM | 98.6 µM |  |  |  |  |  |
| COc1ccc2c(c1)CCN1CCCc3ccccc3C21 (configuration not stated) | 57.9 µM | > 100 µM | > 100 µM | > 100 µM | 34.7 µM | > 100 µM |  | > 100 µM | 58.2 µM |  |  |  |  |  |  |
| COC12C=CC(C=C1C#N)CC2 (configuration not stated) (tested in a mixture with another compound) |  | > 100 µM | > 100 µM | > 100 µM | > 100 µM | > 100 µM | > 100 µM | > 100 µM | > 100 µM | > 100 µM |  |  |  |  |  |
